Source: patent publication US10433539B2, “Composition and solution with controlled calcium ion level, and related method and use for reperfusion” (TEVOSOL, INC., priority 2014, dated 2019)

System: harvested pig hearts
Settings: 500 μmol/L lidocaine in cardioplegic compositions, combined data of Part 1 and Part 2 (1, 3, 5 hours)
Description: Part 1: The next study assessed if there were potential incremental benefits to increasing the duration of reperfusion of harvested donor hearts with a mildly acidic hypocalcemic oxygenated cardioplegic composition.
The sample solutions used for these tests were the same as Sample solutions IIIC described above.

CCN(CC)CC(=O)Nc1c(C)cccc1C [lidocaine]
effect of lidocaine concentration on donor heart myocardial function: debilitating effects
